O=P(Oc1ccccc1)(Oc1ccccc1)Oc1ccc(OP(=O)(Oc2ccccc2)Oc2ccccc2)cc1
Conditions	solubility (mole fraction)
in acetone, 293.25 K	0.0058
in acetone, 298.15 K	0.00849
in acetone, 303.45 K	0.0121
in acetone, 308.15 K	0.0171
in acetone, 313.25 K	0.0237
in acetone, 318.15 K	0.0332
in acetone, 323.45 K	0.0442
in acetonitrile, 293.25 K	0.00142
in acetonitrile, 298.15 K	0.00218
in acetonitrile, 303.25 K	0.0034
in acetonitrile, 308.25 K	0.00546
in acetonitrile, 313.25 K	0.00807
in acetonitrile, 318.15 K	0.0117
in acetonitrile, 323.25 K	0.0173
in acetonitrile, 328.15 K	0.0246
in acetonitrile, 333.25 K	0.0357
in diethyl ether, 288.25 K	0.00064
in diethyl ether, 293.25 K	0.00081
in diethyl ether, 298.15 K	0.00101
in diethyl ether, 303.25 K	0.00127
in ethanol, 293.25 K	0.00037
in ethanol, 298.15 K	0.00062
in ethanol, 303.35 K	0.00097
in ethanol, 308.25 K	0.00156
in ethanol, 313.25 K	0.00238
in ethanol, 318.25 K	0.00356
in ethanol, 323.25 K	0.00528
in ethanol, 328.15 K	0.00807
in ethanol, 333.25 K	0.0115
in ethyl acetate, 293.25 K	0.00423
in ethyl acetate, 298.15 K	0.00605
in ethyl acetate, 303.35 K	0.00865
in ethyl acetate, 308.25 K	0.0123
in ethyl acetate, 313.25 K	0.0169
in ethyl acetate, 318.15 K	0.0226
in ethyl acetate, 323.25 K	0.0308
in ethyl acetate, 328.15 K	0.0419
in ethyl acetate, 333.25 K	0.0553
in isopropanol, 293.15 K	0.00013
in isopropanol, 298.23 K	0.00024
in isopropanol, 303.25 K	0.00041
in isopropanol, 308.15 K	0.00071
in isopropanol, 313.35 K	0.00125
in isopropanol, 318.15 K	0.00211
in isopropanol, 323.17 K	0.00346
in isopropanol, 328.15 K	0.00544
in isopropanol, 333.25 K	0.00933
in methanol, 293.25 K	0.00022
in methanol, 298.15 K	0.0004
in methanol, 303.25 K	0.00069
in methanol, 308.15 K	0.00118
in methanol, 313.25 K	0.00205
in methanol, 318.15 K	0.0034
in methanol, 323.45 K	0.00597
in methyl acetate, 293.25 K	0.00522
in methyl acetate, 298.25 K	0.00729
in methyl acetate, 303.25 K	0.0106
in methyl acetate, 308.15 K	0.0144
in methyl acetate, 313.15 K	0.0203
in methyl acetate, 318.15 K	0.0275
in methyl acetate, 323.45 K	0.0369
in n-propanol, 293.15 K	0.00025
in n-propanol, 298.17 K	0.00046
in n-propanol, 303.25 K	0.00078
in n-propanol, 308.15 K	0.00127
in n-propanol, 313.24 K	0.00215
in n-propanol, 318.18 K	0.0035
in n-propanol, 323.25 K	0.00558
in n-propanol, 328.15 K	0.00884
in n-propanol, 333.24 K	0.0136
in toluene, 293.15 K	0.00378
in toluene, 298.25 K	0.00543
in toluene, 303.35 K	0.00795
in toluene, 308.15 K	0.0114
in toluene, 313.25 K	0.0154
in toluene, 318.18 K	0.0219
in toluene, 323.25 K	0.0303
in toluene, 328.16 K	0.0402
in toluene, 333.25 K	0.0556

Source: BigSolDB 2.1
